Calls of active or inactive are those of the source. The rule behind the calls is not given here.
target: Cruzipain (Trypanosoma cruzi) (UniProt P25779); test: Inhibition of recombinant Trypanosoma cruzi Cruzain using Z-FR-AMC as substrate at 100 uM preincubated with enzyme for 10 mins and measured for 5 mins by fluorescence based analysis; details: time 15.0 min
Sequence (P25779 123-467 limits assumed): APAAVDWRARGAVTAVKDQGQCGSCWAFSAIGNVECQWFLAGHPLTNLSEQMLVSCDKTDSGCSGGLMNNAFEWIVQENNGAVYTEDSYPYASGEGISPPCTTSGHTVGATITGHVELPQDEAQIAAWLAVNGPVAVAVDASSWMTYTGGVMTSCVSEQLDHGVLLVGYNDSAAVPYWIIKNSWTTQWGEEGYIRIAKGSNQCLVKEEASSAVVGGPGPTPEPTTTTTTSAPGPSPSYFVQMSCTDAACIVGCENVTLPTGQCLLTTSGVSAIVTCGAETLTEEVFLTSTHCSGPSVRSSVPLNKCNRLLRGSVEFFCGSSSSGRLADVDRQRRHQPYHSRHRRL

inhibition [%] | Compound
7.2 | COc1ccccc1OCC(O)Cn1cc(COc2ccc([N+](=O)[O-])cc2)nn1 (racemic)
7.2 | C=CCc1ccc(OCC(O)Cn2cc(COc3ccc(Cl)cc3)nn2)c(OC)c1 (racemic)
7.2 | CCCc1ccc(OCC(Cn2cc(-c3ccccc3)nn2)OCc2ccccc2)c(OC)c1 (racemic)
7.2 | CCCc1ccc(OCC(O)Cn2ccnn2)c(OC)c1 (racemic)

Second part, the molecule before the results:

Compound | inhibition [%]
CCCc1ccc(OCC(O)Cn2cc(-c3ccccc3)nn2)c(OC)c1 (racemic) | 17
COc1ccc(OCc2cn(CC(O)COc3ccccc3OC)nn2)cc1 (racemic) | 7.2
C=CCc1ccc(OCC(O)Cn2cc(COc3ccc(OC)cc3)nn2)c(OC)c1 (racemic) | 7.2
CCCc1ccc(OCC(O)Cn2cc(COc3ccccc3)nn2)c(OC)c1 (racemic) | 7.2
C=CCc1ccc(OCC(O)Cn2cc(COc3ccc([N+](=O)[O-])cc3)nn2)c(OC)c1 (racemic) | 7.2
COc1ccccc1OCC(O)Cn1cc(COc2ccccc2)nn1 (racemic) | 7.2

tested on: Trypanosoma cruzi; test: Antitrypanosomal activity against epimastigote form of Trypanosoma cruzi Y assessed as inhibition of parasite proliferation incubated for 72 hrs by resazurin dye based analysis; type: functional, organism-based; details: not given

IC50 [µM] | Compound
60.8 | COc1ccccc1OCC(O)Cn1cc(COc2ccc([N+](=O)[O-])cc2)nn1 (racemic)
37 | C=CCc1ccc(OCC(O)Cn2cc(COc3ccc(Cl)cc3)nn2)c(OC)c1 (racemic)
335 | CCCc1ccc(OCC(Cn2cc(-c3ccccc3)nn2)OCc2ccccc2)c(OC)c1 (racemic)
212 | CCCc1ccc(OCC(O)Cn2ccnn2)c(OC)c1 (racemic)

Further lines, the molecule ahead of its results:

Compound | IC50 [µM]
CCCc1ccc(OCC(O)Cn2cc(-c3ccccc3)nn2)c(OC)c1 (racemic) | 53.7
COc1ccc(OCc2cn(CC(O)COc3ccccc3OC)nn2)cc1 (racemic) | 113
C=CCc1ccc(OCC(O)Cn2cc(COc3ccc(OC)cc3)nn2)c(OC)c1 (racemic) | 190
CCCc1ccc(OCC(O)Cn2cc(COc3ccccc3)nn2)c(OC)c1 (racemic) | 75.8
C=CCc1ccc(OCC(O)Cn2cc(COc3ccc([N+](=O)[O-])cc3)nn2)c(OC)c1 (racemic) | 149
COc1ccccc1OCC(O)Cn1cc(COc2ccccc2)nn1 (racemic) | 112
O=C(Cn1ccnc1[N+](=O)[O-])NCc1ccccc1 [BENZNIDAZOLE] | 21.5

tested on: H9c2; test: (§1) Cytotoxicity against rat H9c2 cells assessed as reduction in cell viability measured after 72 hrs by resazurin due based analysis; type: toxicity; details: h9c2

Compound | IC50 [µM]
C=CCc1ccc(OCC(O)Cn2cc(COc3ccc(OC)cc3)nn2)c(OC)c1 (racemic) | 1690
O=C(Cn1ccnc1[N+](=O)[O-])NCc1ccccc1 [BENZNIDAZOLE] | 1690

tested on: not listed separately; test: as §1; type: toxicity; details: rat, H9c2 cells

Compound | IC50 at 72 h [µM]
CCCc1ccc(OCC(O)Cn2cc(-c3ccccc3)nn2)c(OC)c1 (racemic) | 16.8
COc1ccccc1OCC(O)Cn1cc(COc2ccc([N+](=O)[O-])cc2)nn1 (racemic) | 134
C=CCc1ccc(OCC(O)Cn2cc(COc3ccc(Cl)cc3)nn2)c(OC)c1 (racemic) | 58.1
COc1ccc(OCc2cn(CC(O)COc3ccccc3OC)nn2)cc1 (racemic) | 469
CCCc1ccc(OCC(Cn2cc(-c3ccccc3)nn2)OCc2ccccc2)c(OC)c1 (racemic) | > 400
CCCc1ccc(OCC(O)Cn2ccnn2)c(OC)c1 (racemic) | 743
CCCc1ccc(OCC(O)Cn2cc(COc3ccccc3)nn2)c(OC)c1 (racemic) | 211
C=CCc1ccc(OCC(O)Cn2cc(COc3ccc([N+](=O)[O-])cc3)nn2)c(OC)c1 (racemic) | 323
COc1ccccc1OCC(O)Cn1cc(COc2ccccc2)nn1 (racemic) | 437

tested on: Trypanosoma cruzi; test: Anti-trypanosomal activity against epimastigote form of Trypanosoma cruzi by resazurin microtiter assay; type: functional, organism-based; details: not given

IC50 [µM] | Compound
42.8 | CCCc1ccc(OCC(O)Cn2cc(-c3ccccc3)nn2)c(OC)c1 (racemic)

tested on: not listed separately; test: Selectivity index, ratio of CC50 for cytotoxicity against rat H9c2 cells to IC50 for antitrypanosomal activity against epimastigote form of Trypanosoma cruzi Y; type: toxicity, cell-based; details: read-out: Ratio IC50

Compound | selectivity ratio
CCCc1ccc(OCC(O)Cn2cc(-c3ccccc3)nn2)c(OC)c1 (racemic) | 0.3
COc1ccccc1OCC(O)Cn1cc(COc2ccc([N+](=O)[O-])cc2)nn1 (racemic) | 2.1
C=CCc1ccc(OCC(O)Cn2cc(COc3ccc(Cl)cc3)nn2)c(OC)c1 (racemic) | 1.5
COc1ccc(OCc2cn(CC(O)COc3ccccc3OC)nn2)cc1 (racemic) | 4.1
C=CCc1ccc(OCC(O)Cn2cc(COc3ccc(OC)cc3)nn2)c(OC)c1 (racemic) | 8.9
CCCc1ccc(OCC(Cn2cc(-c3ccccc3)nn2)OCc2ccccc2)c(OC)c1 (racemic) | > 1.1
CCCc1ccc(OCC(O)Cn2ccnn2)c(OC)c1 (racemic) | 3.5
CCCc1ccc(OCC(O)Cn2cc(COc3ccccc3)nn2)c(OC)c1 (racemic) | 2.7
C=CCc1ccc(OCC(O)Cn2cc(COc3ccc([N+](=O)[O-])cc3)nn2)c(OC)c1 (racemic) | 2.1
COc1ccccc1OCC(O)Cn1cc(COc2ccccc2)nn1 (racemic) | 3.8
O=C(Cn1ccnc1[N+](=O)[O-])NCc1ccccc1 [BENZNIDAZOLE] | 78.4

tested on: Trypanosoma cruzi; test: Anti-trypanosomal activity against trypomastigote form of Trypanosoma cruzi Y infected in Swiss mouse assessed as reduction in parasitemia at 100 mg/kg, po administered via gavage for 2 days from day 5 post-infection; type: functional; details: 48 h, time 2 day

Compound | inhibition in vivo at 100 mg/kg [%]
O=C(Cn1ccnc1[N+](=O)[O-])NCc1ccccc1 [BENZNIDAZOLE] | 100

tested on: Trypanosoma cruzi; test: Anti-trypanosomal activity against trypomastigote form of Trypanosoma cruzi Y infected in mouse assessed as reduction in parasitemia at 100 mg/kg, po for 7 days; type: functional; details: 168 h, time 7 day

Compound | inhibition in vivo at 100 mg/kg [%]
CCCc1ccc(OCC(O)Cn2cc(-c3ccccc3)nn2)c(OC)c1 (racemic) | 50

tested on: Mus musculus; test: Reduction in plasma total IgG level in Swiss mouse infected with trypomastigote form of Trypanosoma cruzi Y at 100 mg/kg, po administered via gavage for 7 days from day 5 post-infection by ELISA; type: functional, organism-based; details: time 7.0 day

Compound | inhibition
O=C(Cn1ccnc1[N+](=O)[O-])NCc1ccccc1 [BENZNIDAZOLE] | Active

tested on: Mus musculus; test: Reduction in plasma IgG1 level in Swiss mouse infected with trypomastigote form of Trypanosoma cruzi Y at 100 mg/kg, po administered via gavage for 7 days from day 5 post-infection by ELISA; type: functional, organism-based; details: time 7.0 day

Compound | inhibition
O=C(Cn1ccnc1[N+](=O)[O-])NCc1ccccc1 [BENZNIDAZOLE] | Active

tested on: Trypanosoma cruzi; test: Antitrypanosomal activity against trypomastigote form of Trypanosoma cruzi Y assessed as inhibition of parasite viability incubated for 24 hrs by light microscopy; type: functional, organism-based; details: not given

Compound | IC50 [µM]
O=C(Cn1ccnc1[N+](=O)[O-])NCc1ccccc1 [BENZNIDAZOLE] | 12.7

tested on: Mus musculus; test: Reduction in plasma IgG2 level in Swiss mouse infected with trypomastigote form of Trypanosoma cruzi Y at 100 mg/kg, po administered via gavage for 7 days from day 5 post-infection by ELISA; type: functional, organism-based; details: time 7.0 day

Compound | inhibition
O=C(Cn1ccnc1[N+](=O)[O-])NCc1ccccc1 [BENZNIDAZOLE] | Active

target: Cruzipain (Trypanosoma cruzi) (UniProt P25779); test: Inhibition of recombinant Trypanosoma cruzi Cruzain using Z-FR-AMC as substrate at 100 uM measured for 5 mins by fluorescence based analysis; details: not given

inhibition [%] | Compound
7.2 | COc1ccccc1OCC(O)Cn1cc(COc2ccc([N+](=O)[O-])cc2)nn1 (racemic)
7.2 | C=CCc1ccc(OCC(O)Cn2cc(COc3ccc(Cl)cc3)nn2)c(OC)c1 (racemic)
7.2 | CCCc1ccc(OCC(Cn2cc(-c3ccccc3)nn2)OCc2ccccc2)c(OC)c1 (racemic)
7.2 | CCCc1ccc(OCC(O)Cn2ccnn2)c(OC)c1 (racemic)

The next lines start with the molecule.

Compound | inhibition [%]
CCCc1ccc(OCC(O)Cn2cc(-c3ccccc3)nn2)c(OC)c1 (racemic) | 17
COc1ccc(OCc2cn(CC(O)COc3ccccc3OC)nn2)cc1 (racemic) | 7.2
C=CCc1ccc(OCC(O)Cn2cc(COc3ccc(OC)cc3)nn2)c(OC)c1 (racemic) | 7.2
CCCc1ccc(OCC(O)Cn2cc(COc3ccccc3)nn2)c(OC)c1 (racemic) | 7.2
C=CCc1ccc(OCC(O)Cn2cc(COc3ccc([N+](=O)[O-])cc3)nn2)c(OC)c1 (racemic) | 7.2
COc1ccccc1OCC(O)Cn1cc(COc2ccccc2)nn1 (racemic) | 7.2

Source: ChEMBL document CHEMBL5620433, “Design and synthesis of new 1,2,3-triazoles derived from eugenol and analogues with in vitro and in vivo activity against Trypanosoma cruzi” (Eur J Med Chem, 2023)
